Source: patent US9938240B2, “Fluorinated derivatives of 3-hydroxypyridin-4-ones” (Apotex Technologies Inc., priority 2009, dated 2018)

What was measured:
[1] = Stepwise formation constants for Fe-ligand system by titration in 0.1M NaCl; assay type: physicochemical; conditions: for pFe^3+: pH 7.4, ligand 10 μM, metal 1 μM, HySS; for K111 / K122 / K133: stepwise constant, Fe-ligand system, Example 53
Method: Stepwise formation constants for M^n+-ligand systems were determined by spectrophotometric titration when metal complexes have a strong absorbance in the visible region due to ligand to metal charge transfer.
In a typical experiment, the sample solution was prepared according to the following procedure: compound Apo7041 (12.96 mg) was weighed into a 50 mL volumetric flask, and about 40 mL of 0.1 M NaCl was added. The mixture was sonicated for 10 min to give a clear colorless solution. The iron stock solution (atomic absorption standard, Aldrich, 565 μL, 10.00 μmol) was pipetted into the solution, followed by the addition of 1.000 N NaOH (170 μL). More of the 0.1 M NaCl was added to volume and the resulting solution was vortexed to mix. The molar ratio between the total iron and the total Apo7041 was 1/5.1. The mixture was vortexed at rt for 1 h. 20 mL of the sample solution was transferred into a 35 mL beaker by using a 10 mL digital pipet. The sample solution was circulated between the beaker and the flow cell using a sipper system. The sample solution was titrated against hydrochloric acid solutions at 22° C. until the pH reached 0.021. After each addition of acid, the solution was allowed to equilibrate until a constant pH reading was reached. The pH and the UV-Vis spectrum were recorded for each measurement. For each measurement enough acid was added so that there was a slight decrease in the absorbance of the spectrum. Altogether, 68 measurements were taken to finish the experiment.
The resulting data set was then analyzed using pHAB. The formation constants for Fe-Apo7041 system were optimized using the model shown in the first column of the table.
pM^n+ is defined as −log [M(H2O)m]^n+ at physiological conditions, i.e.: pH 7.4, a ligand concentration of 10 μM, and a metal concentration of 1 μM. To calculate pM^n+ for a MLn system, βn and pKa values are needed (βn are the formation constants for M^n++n L^−⇄MLn; pKa are the equilibrium constants for L^−+n H^+⇄LHn^(n-1)+). The pM^n+ is calculated using the HySS software (HYSS© 2000 Protonic Software).
The log β values of the Fe-Apo7323 system were determined by spectrophotometric titration using an Agilent 8453 UV-visible spectroscopy system (see Example 29B). The sample solution was a mixture of Fe^3+ (2×10^−4 M) and Apo7323 (1×10^−3 M) in 0.1 N NaCl aqueous solvent. The titration data in a pH range of 3.408 to 0.655 were fitted with pHAB using the model shown in FIG. 1 to obtain Log β111, Log β122, and Log β133.
The sample solution was a mixture of Fe^3+ (6×10^−3M) and Apo7323 (1.8×10^−2M) in 0.1 N NaCl aqueous solvent. The titration started at pH 1.72 and ended at pH 11.5 using 3 M NaOH as the titrant. The titration data in a pH range of 3 to 10 were fitted with Hyperquad2000 software using the model:
[drawing 175] where 133 is the species (FeL3H3)^3+, 132 is the species is (FeL3H2)^2+, 131 is the species (FeL3H)^+, and 130 is the species FeL3.
(§1) After obtaining three pKa values for Apo7323 (ligand), three pKa values for the Fe-Apo7323 complex, and the log β values for Fe-Apo7323 as shown in the following table, a speciation plot (FIG. 14) was constructed using the HySS software program. pFe was also calculated using the HySS software.

[2] = Fe speciation plot (HySS); assay type: physicochemical; conditions: for % FeL2H2 at pH 7.4 / % FeL3 (species 130, neutral/uncharged ferric chelate) at pH 7.4 / % FeL3H2 (species 132) at pH 7.4 / % FeL3H3 (species 133) at pH 7.4 / % FeL3H (species 131) at pH 7.4: Fe:ligand 1:10, [Fe]=1×10^−6 M, [L]=1×10^−5 M
Description: Example 54 illustrates the speciation distribution of several amino fluorinated derivatives of 3-hydroxypyridin-4-(1H)-ones of the invention. The speciation plot (distribution of ferric chelate species) of two compounds of formula I (Apo7067 and Apo7323) at pH 7.4 is provided in the following table.
as §1

[3] = tested on: SH-SY5Y human neuroblastoma cells; conditions: for CC2 (cytotoxic concentration): H2O2-treated cells, viability below 80%; for CC1 (cytotoxic concentration): absence of H2O2, viability below 80%
Method in brief: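 SH-SY5Y cells were treated with a range of compound concentrations, with or without 50 μM H2O2, in serum-free medium for 16–22 h. Viability was measured by MTT and expressed relative to cells receiving neither H2O2 nor compound. Runs without H2O2 assessed cytotoxicity.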

[4] = 0.1 M NaCl, spectrophotometric titration
[5] = 0.1 M NaCl, spectrophotometric titration, fitted

Structure (SMILES): CN(C)C(c1c(O)c(=O)ccn1C)C(F)(F)F (stereo not drawn) [Apo7041, 2-[1-(dimethylamino)-2,2,2-trifluoroethyl]-3-hydroxy-1-methylpyridin-4(1H)-one]
- Log β130 (Fe3+) ([1]; 0.1 M NaCl, fitted): 38.8
- Log β111 (Fe3+) [1, 4]: 18.1
- Log β122 (Fe3+) [1, 4]: 35.0
- Log β133 (Fe3+) [1, 4]: 50.5
- Log β131 (Fe3+) [1, 5]: 44.5
- Log β132 (Fe3+) [1, 5]: 48.3
- pFe^3+ [1]: pFe^3+ = 23.4
- pH from which the FeL3 chelate is stable ([2]; speciation plot FIG. 5): ≥ 5
- CC2 (cytotoxic concentration) [3]: 320 µM
- CC1 (cytotoxic concentration) [3]: 160 µM

Structure (SMILES): CNC(c1cn(C)c(C)c(O)c1=O)C(F)(F)F (stereo not drawn) [Apo7056, 3-Hydroxy-1,2-dimethyl-5-[2,2,2-trifluoro-1-(methylamino)ethyl]pyridin-4(1H)-one]
- Log β111 (Fe3+) [1, 4]: 18.7
- Log β122 (Fe3+) [1, 4]: 35.9
- Log β133 (Fe3+) [1, 4]: 51.5
- Log β130 (Fe3+) ([1]; Example 53: Log β131 − pKa1(C)): 36.5
- Log β131 (Fe3+) ([1]; Example 53: Log β132 − pKa2(C)): 42.3
- Log β132 (Fe3+) ([1]; Example 53: Log β133 − pKa3(C)): 47.3
- K111 [1]: 18.7
- K122 [1]: 17.2
- K133 [1]: 15.6
- % FeL2H2 at pH 7.4 [2]: 0.0%
- % FeL3 (species 130, neutral/uncharged ferric chelate) at pH 7.4 [2]: 97.5%
- % FeL3H2 (species 132) at pH 7.4 [2]: 0.0%
- % FeL3H3 (species 133) at pH 7.4 [2]: 0.0%
- % FeL3H (species 131) at pH 7.4 [2]: 2.40%

Structure (SMILES): CN(C)Cc1c(O)c(=O)ccn1CC(F)(F)F [Apo7067, 2-[(dimethylamino)methyl]-3-hydroxy-1-(2,2,2-trifluoroethyl)pyridin-4(1H)-one]
- Log β111 (Fe3+) [1, 4]: 20.0
- Log β122 (Fe3+) [1, 4]: 38.7
- Log β133 (Fe3+) [1, 4]: 55.7
- Log β130 (Fe3+) ([1]; Example 53: Log β131 − pKa1(C)): 34.5
- Log β131 (Fe3+) ([1]; Example 53: Log β132 − pKa2(C)): 42.6
- Log β132 (Fe3+) ([1]; Example 53: Log β133 − pKa3(C)): 49.6
- K111 [1]: 20.0
- K122 [1]: 18.7
- K133 [1]: 17.0
- % FeL3H2 (species 132) at pH 7.4 [2]: 24.6%
- % FeL3H3 (species 133) at pH 7.4 [2]: 1.2%
- % FeL3H (species 131) at pH 7.4 [2]: 61.8%
- CC2 (cytotoxic concentration) [3]: >640 µM
- CC1 (cytotoxic concentration) [3]: 160 µM

Structure (SMILES): O=c1ccn(CC(F)(F)F)c(CN2CCOCC2)c1O [Apo7323, 3-hydroxy-2-(morpholinomethyl)-1-(2,2,2-trifluoroethyl)pyridin-4(1H)-one]
- Log β111 (Fe3+) [1, 4]: 18.4
- Log β122 (Fe3+) [1, 4]: 34.9
- Log β133 (Fe3+) [1, 4]: 50.1
- Log β130 (Fe3+) ([1]; Example 53: Log β131 − pKa1(C)): 35.7
- Log β131 (Fe3+) ([1]; Example 53: Log β132 − pKa2(C)): 41.6
- Log β132 (Fe3+) ([1]; Example 53: Log β133 − pKa3(C)): 46.2
- K111 [1]: 18.4
- K122 [1]: 16.5
- K133 [1]: 15.1
- % FeL2H2 at pH 7.4 [2]: 0.0%
- % FeL3H2 (species 132) at pH 7.4 [2]: 0.0%
- % FeL3H3 (species 133) at pH 7.4 [2]: 0.0%
- % FeL3H (species 131) at pH 7.4 [2]: 3.1%
- CC2 (cytotoxic concentration) [3]: 320 µM
- CC1 (cytotoxic concentration) [3]: 160 µM

Structure (SMILES): Cc1c(O)c(=O)c(C(N2CCOCC2)C(F)(F)F)cn1C (stereo not drawn) [Apo7435, 3-hydroxy-1,2-dimethyl-5-(2,2,2-trifluoro-1-morpholinoethyl)pyridin-4(1H)-one]
- Log β111 (Fe3+) [1, 4]: 15.9
- Log β122 (Fe3+) [1, 4]: 30.4
- Log β133 (Fe3+) [1, 4]: 44.8
- Log β130 (Fe3+) ([1]; Example 53: Log β131 − pKa1(C)): 35.6
- Log β131 (Fe3+) ([1]; Example 53: Log β132 − pKa2(C)): 39.6
- Log β132 (Fe3+) ([1]; Example 53: Log β133 − pKa3(C)): 42.7
- K111 [1]: 15.9
- K122 [1]: 14.5
- K133 [1]: 14.4
- % FeL2H2 at pH 7.4 [2]: 0.0%
- % FeL3 (species 130, neutral/uncharged ferric chelate) at pH 7.4 [2]: 100%
- % FeL3H2 (species 132) at pH 7.4 [2]: 0.0%
- % FeL3H3 (species 133) at pH 7.4 [2]: 0.0%
- % FeL3H (species 131) at pH 7.4 [2]: 0.00%
- CC2 (cytotoxic concentration) [3]: 320 µM
- CC1 (cytotoxic concentration) [3]: 80 µM

Structure (SMILES): Cc1c(O)c(=O)ccn1C [Deferiprone, 3-hydroxy-1,2-dimethylpyridin-4(1H)-one, reference compound]
- Log β130 (Fe3+) ([1]; 0.1 M NaCl, fitted, listed as deferiprone): 37.24
- Log β130 (Fe3+) ([1]; 0.1 M NaCl, fitted, listed as drawing 103): Logβ130 = 37.24
- Logβ110 (Fe3+) ([1]; 0.1M aqueous NaCl): Logβ110 = 14.85
- Logβ120 (Fe3+) ([1]; 0.1M aqueous NaCl): Logβ120 = 27.25
- pFe^3+ [1]: pFe^3+ = 20.2
- % FeL3 (species 130, neutral/uncharged ferric chelate) at pH 7.4 [2]: ~100%
